Measured values taken from ChEMBL document CHEMBL5038588 (J Med Chem, 2021).
pIC50: −log10 of the molar value.

How the values were obtained:
BaF3 [1] = assay: Inhibition of cell proliferation in mouse BaF3 cells expressing BCR-ABL T315I mutant assessed as cell viability at 100 uM measured after 48 hrs by trypan blue based assay (RVB=100%); assay type: functional; settings: read-out: Activity
KU812 cell line = assay: Cytotoxicity against human KU812 cells assessed as inhibition of cell growth measured after 72 hrs by MTT assay; assay type: functional, cell-based; settings: KU812, 72 h
U-937 = assay: Cytotoxicity against human U-937 cells assessed as inhibition of cell growth measured after 72 hrs by MTT assay; assay type: functional, cell-based; settings: U-937, 72 h
Jurkat = assay: Cytotoxicity against human Jurkat cells assessed as inhibition of cell growth measured after 72 hrs by MTT assay; assay type: functional, cell-based
BaF3 [2] = assay: cells; settings: Mus musculus, BaF3, 72 h
Description: Cytotoxicity against mouse BAF3 cells expressing native BCR-ABL assessed as inhibition of cell growth measured after 72 hrs by MTT assay

BaF3 [3] = assay: cells; settings: Mus musculus, BaF3, 48 h
Description: Cytotoxicity against mouse BAF3 cells expressing BCR-ABL T315I mutant assessed as inhibition of cell growth measured after 48 hrs by trypan blue assay

K562 = assay: cells; settings: Homo sapiens, K562, 72 h
Description: Cytotoxicity against human K562 cells assessed as cell growth inhibition measured after 72 hrs by MTT assay

SMILES | viability at 100 µM (BaF3 [1]) | also measured
CN1CCN(Cc2ccc3nc(-c4ccc(Cl)c(C#Cc5ccc(NC6CC6)nn5)c4)[nH]c3c2)CC1 | 74.8% | –
Cc1ccc(C(=O)Nc2ccc3c(c2)C(F)(F)C[C@H]3N2CCN(C)CC2)cc1C#Cc1cnc(NC2CC2)nc1 | – | pIC50 (KU812 cell line): 8.28; pIC50 (U-937): 6.33; pIC50 (Jurkat): 6.40; pIC50 (BaF3 [2]): 7.20; pIC50 (BaF3 [3]): < 7.00; pIC50 (K562): 7.98
Cc1cn(-c2ccc3nc(-c4ccc(C)c(C#Cc5cnc6cccnn56)c4)[nH]c3c2)cn1 | 94.1% | –
Cc1ccc(-c2nc3ccc(CN4CCN(C)CC4)cc3[nH]2)cc1C#Cc1ccc(NC(C)C)nn1 | 96.5% | –
CN1CCN(Cc2ccc3nc(-c4ccc(Cl)c(C#Cc5cnc6cccnn56)c4)[nH]c3c2)CC1 | 94.5% | –
Cc1ccc(-c2nc3ccc(CN4CCN(C)CC4)cc3[nH]2)cc1C#Cc1ccc(NC2CC2)nn1 | 88.9% | –
CN1CCN(Cc2ccc3nc(-c4ccc(Cl)c(C#Cc5cnc(NC6CC6)nc5)c4)[nH]c3c2)CC1 | 105% | –
CC(C)Nc1ccc(C#Cc2cc(-c3nc4ccc(CN5CCN(C)CC5)cc4[nH]3)ccc2Cl)nn1 | 100% | –
CN1CCN(Cc2ccc3nc(-c4ccc(Cl)c(C#Cc5ccc(NC6CCC6)nn5)c4)[nH]c3c2)CC1 | 97.4% | –
Cc1ccc(-c2nc3ccc(CN4CCN(C)CC4)cc3[nH]2)cc1C#Cc1ccc(NC2CCC2)nn1 | 110% | –
